Data taken from patent publication US8883718B2, “Treating cancer” (Theryte Limited, priority 2008, dated 2014).
[ ]: non-standard residue; d: D form.

Columns and labels:
[1] = tested on: H460 human non-small cell lung cancer cells; experiment: MTS cell viability assay, H460 cells; format: cell-based; settings: H460, 12.5 to 100 μM, 2-4 weeks
Method: (§1) The effect of these peptides was tested on both human fibroblasts and H460 human non-small cell […] cancer cells at doses in the range 12.5 to 100 μM. The peptides were tested in vitro by exposure to 100 H460 human non-small cell lung cancer cells, or short term cultures of normal human diploid fibroblasts, in 200 ul of Ham's F12 tissue culture medium supplemented with 10% FCS. Cells were set up in 100 ul on day 0 and 24 hours later a further 100 ul of the same medium containing ×2 the appropriate concentration of peptide over a range of 12.5-100 uM was added. The cells were then incubated at 37° C., 5% CO2 in an humidified incubator for 2-4 weeks.
(§2) Cell viability was measured by an MTS assay (CellTiter 96^R Non-Radioactive Cell Proliferation Assay. Promega Corporation, 2800 Woods Hollow Road, Madison Wis. 53711-5399 USA). The original form of this assay was described by Mosmann (J. Immunol. Meth. 65; 55-63. 1983) and gives a colorometric reading whose intensity depends on the conversion, by viable cells, of a tetrazolium salt into a coloured formazan which is easily quantified by colorimetric reading of a 96 well assay plate.

[2] = tested on: normal human diploid fibroblasts; experiment: MTS cell viability assay, fibroblasts; format: cell-based; settings: 12.5 to 100 μM, 2-4 weeks
Method: as §1, §2

[3] = tested on: Cdk1 compared to Cdk4 in RT112 cells; experiment: sequential Western blots of RT112 cells after peptide exposure; format: cell-based, human; settings: over 15 days
From the text: Peptides were introduced at day 0 and left in-situ throughout the experiment.
In a clinical context this might provide a biomarker of therapeutic efficacy. […] Such a homogeneous therapeutic response is in marked contrast to the wide range of variability in dose response of different cancer cell lines seen with conventional chemotherapeutic agents^24. Cancer cells both underwent successful mitosis and died (FIG. 3f) or died in interphase (FIG. 7d). […] MRC-hTERT fibroblasts (FIG. 7c) and short term cultures of normal diploid human keratinocytes (FIG. 3h) were not killed by 200 μM THR53.

[4] = tested on: RT112 human bladder cancer cells; experiment: clonogenic assay on RT112 cells; format: cell-based
Method: (§3) Normal diploid human fibroblasts in short term culture were unaffected (FIG. 2b). […] However, PRGPRP (SEQ ID NO: 2) is only effective at killing RT112 bladder cancer cells at a concentration of 5.0 mM. Because of concern that such high peptide doses might cause artefactual, non-specific effects, structure/function studies were carried out.
(§4) The first experiments were carried out on cyc-[[…]] (THR 53, (SEQ ID NO: 9)), see FIG. 4. Whilst the 96 well assays described in Example 3 are suitable for initial screening of small amounts of peptide material the long incubation periods in dense culture do themselves compromise cell viability to some extent. […] In clonogenic assays, (previously described by Warenius et al Br J Cancer (2000) 83(8), 1048-1059) single cell suspensions of 100 cells are plated in plentiful volumes of 2 ml of Ham's F12 tissue culture medium supplemented with 10% FCS and incubated for 15, 20 or 25 days. A high percentage of the plated cells (40-60% in the case of H460) go through repeated doublings to yield colonies of 200 or more cells which can be easily visualized by the naked eye and counted under a low power lens when stained by giemsa stain.

[5] = tested on: H460 human non-small cell lung cancer cells; experiment: clonogenic assay on H460 cells; format: cell-based
Method: as §4
The efficacy of THR53 was compared to Ac-PRGPRP-NH2 (SEQ ID NO: 2) using a clonogenic assay.

[6] = tested on: Normal diploid human fibroblasts; experiment: normal diploid human fibroblasts in short term culture; format: cell-based
Method: as §3

[7] = tested on: MGHU-1 Human transitional bladder cancer cells; experiment: in-vitro culture of MGHU-1 bladder cancer cells, cell death observed morphologically; format: cell-based
Method: as §3
5 mM was required to produce 100% lethality in in vitro experiments on RT 112 (FIG. 2a) or MGHU-1 human bladder cancer cells. This limits the applicability of PRGPRP (SEQ ID NO: 2) to therapy even though it has selected killing activity in human cancer cells but not normal human fibroblasts.

[8] = tested on: RT112 bladder cancer cells; experiment: Cell killing by cyclic peptides, RT112 (Table 2); format: cell-based, human; design: key: - - - = No cell killing; settings: 100 μM
Method: (§5) Table 2 lists cyclic peptides including the PRGPRP (SEQ ID NO:2) sequence which have no effect on RT112 bladder cancer cells at a concentration of 100 μM.

Fibroblasts = experiment: Cell killing by cyclic peptides, fibroblasts (Table 2); format: cell-based; design: key: - - - = No cell killing
Method: as §5

human cancer cells = experiment: clonogenic assays of human cancer cells exposed to PRGPRP motif in cyclic amphiphilic cassettes; format: cell-based; settings: FIG. 6i
Method: FIGS. 6(h) and (i) show clonogenic assays of human cancer cells exposed to the PRGPRP (SEQ ID NO: 2) motif in cyclic amphiphlic cassettes. THR53 (SEQ ID NO: 9, cyc-[[…]]); THR53C (SEQ ID NO: 23, cyc-[[…]], a control peptide); THR54 (SEQ ID NO: 10, cyc-[[…]]); THR79 (SEQ ID NO: 11, cyc-[PRGPRPvalklalklal]).
as §4
The effectiveness of cyclic peptides comprising amphiphilic sequences is further illustrated in FIGS. 6h and 6i, showing the results of a clonogenic assay using the peptides THR53 cyc-[[…]] (SEQ ID NO: 9); THR53C, cyc-[[…]] […]

cancer cell = experiment: effect of amino acid stereochemistry on cancer cell-killing activity; format: cell-based
From the text: The peptides used were: THR75 (SEQ ID NO: 24, cyc-[PRGPRPValklalklal]); THR77 (SEQ ID NO: 25, cyc-[PRGPRPValklalklaL]); THR78 (SEQ ID NO: 26, cyc-[[…]lklalklaL]; THR79 (SEQ ID NO: 11 cyc-[PRGPRPvalklalklal]). Upper case denotes the L isomer of the amino acids and lower case denotes the D isomer.
It has also been discovered that the stereochemistry of the amino acids in the peptide sequence is relevant to efficacy. Analogues of THR54 (SEQ ID NO: 10) in which certain L-amino-acids have been replaced with D-amino-acids were prepared.
This was THR79 in which was approximately 2-4 times as active as THR54.

[9] = tested on: MGHU-1 Human transitional bladder cancer cells; settings: cited from earlier work

With “Ac-PRGPRPVKLALKLALKAL-NH2 [THR51, linear peptide outside the scope of the invention]” as the substance, how does the “cancer cell killing (cell viability, MTS)” value [1] read?
The value was “improvement in cancer cell killing over PRGPRP”.

And the “killing of fibroblasts (cell viability, MTS)” value [2]?
Its value is “equally as well killed”.

With “Ac-PRRPGPVKLALKLALKAL-NH2 [THR51C, control for THR51 in which one arginine was switched with a glycine, reference compound]” as the substance, how does the “killing of fibroblasts (cell viability, MTS)” value [2] read?
Its value is “non-specific killing”.

Which “change in Cdk1 compared to Cdk4” value [3] does the source give for “Ac-Pro-Arg-Arg-Pro-Gly-Pro-NH2 (Ac-PRRPGP-NH2)” here?
The value was “not seen”.

What about the “cancer cell lethality / activity in clonogenic assay” value ([4]; RT112) of the same substance?
The value was “inactive”.

Which “effect on H460 cell survival in clonogenic assay” value ([5]; 1 to 10 mM concentration) does the source give for “Ac-Pro-Arg-Gly-Pro-Arg-Pro-NH2 (Ac-PRGPRP-NH2) [end-capped hexameric peptide according to WO2005/123760]” here?
Its value is “limited effect”.

What about the “effect on H460 non-small cell lung cancer, clonogenic assay” value ([5]; H460) of the same substance?
The value was “no effect”.

What about the “effect on normal diploid human fibroblasts in short term culture” value ([6]; 5.0 mM) of the same substance?
The value was “unaffected”.

What about the “change in Cdk1 compared to Cdk4” value [3] of the same substance?
Its value is “Progressive increase”.

What about the “cell death observed morphologically in-vitro” value ([7]; 5.0 mM, 25 days after exposure) of the same substance?
The value was “Complete cell death”.

And the “concentration required to produce 100% lethality” value ([7]; MGHU-1, in vitro)?
The value was 5 mM.

What about the “cancer cell lethality / activity in clonogenic assay” value ([4]; RT112) of the same substance?
Its value is “Cancer cell lethality was confirmed”.

What about the “concentration effective at killing RT112 bladder cancer cells” value ([4]; RT112) of the same substance?
Its value is 5.0 mM.

And the “concentration required to produce 100% lethality” value ([4]; RT 112, in vitro)?
The value was 5 mM.

For “Cyc-[AAAGGGPRGPRPGGGAAA] (cyclic; Cyclic peptide; /note=“cyclic peptide”)”, which “Cell Killing RT112” value [8] is on record?
The value was “- - -”.

What about the “Cell Killing Fibroblasts” value (Fibroblasts) of the same substance?
The value was “- - -”.

For “Cyc-[AAGPGGPRGPRPGGPGAA] (cyclic; Cyclic peptide; /note=“cyclic peptide”)”, which “Cell Killing RT112” value [8] is on record?
Its value is “- - -”.

What about the “Cell Killing Fibroblasts” value (Fibroblasts) of the same substance?
Its value is “- - -”.

Which “Cell Killing RT112” value [8] does the source give for “Cyc-[GGGGGGPRGPRPGGGGGG] (cyclic; Cyclic peptide; /note=“cyclic peptide”)” here?
Its value is “- - -”.

And the “Cell Killing Fibroblasts” value (Fibroblasts)?
The value was “- - -”.

With “Cyc-[GGGGPRGPRPGGGGPRGPRPVPRGPRPV] (cyclic; Cyclic peptide; /note=“cyclic peptide”)” as the substance, how does the “Cell Killing RT112” value [8] read?
The value was “- - -”.

What about the “Cell Killing Fibroblasts” value (Fibroblasts) of the same substance?
The value was “- - -”.

Which “arginine-related structure function relationship in cyclic amphiphilic compounds (control peptide)” value (human cancer cells) does the source give for “cyc-[FPPRRPGPVKLALKLALK] (cyclic; Control peptide; /note=“cyclic peptide”) [THR53C, a control peptide]” here?
The value was “structure function relationship was retained”.

For “cyc-[PRGPRPVALKLALKLAL] (cyclic; Cyclic peptide; /note=“cyclic peptide”) [THR54]”, which cancer cell-killing activity (cancer cell) is on record?
The cancer cell-killing activity was “active”.

For “cyc-[PRGPRPVPRGPRPVPRGPRPV] (cyclic; Cyclic peptide; /note=“cyclic peptide”) [cyclic peptide disclosed in WO2005/123760]”, which “effect on normal fibroblasts” value [6] is on record?
The value was “markedly stimulate”.

And the “killing of MGHU1 cells” value [7]?
Its value is “did not kill”.

And the “effect on MGHU1 cells as disclosed in WO2005/123760” value [9]?
Its value is “caused morphological changes”.

With “cyc-[PRGPRPValklalklal] (cyclo(PRGPRPV[dA][dL][dK][dL][dA][dL][dK][dL][dA][dL]); SMILES CC(C)C[C@H]1NC(=O)[C@@H](C)NC(=O)[C@H](C(C)C)NC(=O)[C@@H]2CCCN2C(=O)[C@H](CCCNC(=N)N)NC(=O)[C@@H]2CCCN2C(=O)CNC(=O)[C@H](CCCNC(=N)N)NC(=O)[C@@H]2CCCN2C(=O)[C@@H](CC(C)C)NC(=O)[C@@H](C)NC(=O)[C@@H](CC(C)C)NC(=O)[C@@H](CCCCN)NC(=O)[C@@H](CC(C)C)NC(=O)[C@@H](C)NC(=O)[C@@H](CC(C)C)NC(=O)[C@@H](CCCCN)NC1=O) [THR 75]” as the substance, how does the “cancer cell-killing activity at 100 uM” value (cancer cell; 100 uM concentration) read?
The value was “remove the activity”.

What does the source list for “cyc-[PRGPRPvalklalklal] (cyclo(PRGPRP[dV][dA][dL][dK][dL][dA][dL][dK][dL][dA][dL]); SMILES CC(C)C[C@H]1NC(=O)[C@@H](C)NC(=O)[C@@H](C(C)C)NC(=O)[C@@H]2CCCN2C(=O)[C@H](CCCNC(=N)N)NC(=O)[C@@H]2CCCN2C(=O)CNC(=O)[C@H](CCCNC(=N)N)NC(=O)[C@@H]2CCCN2C(=O)[C@@H](CC(C)C)NC(=O)[C@@H](C)NC(=O)[C@@H](CC(C)C)NC(=O)[C@@H](CCCCN)NC(=O)[C@@H](CC(C)C)NC(=O)[C@@H](C)NC(=O)[C@@H](CC(C)C)NC(=O)[C@@H](CCCCN)NC1=O) [THR79]”?
activity relative to THR54 (cancer cell): 2-4 times; cancer cell-killing activity (cancer cell): showed cancer cell-killing properties
